From DBAASP
Converted amounts (≈) assume the structure as drawn. “And” between values parts separate entries of the source, which are not always exact repeats. Equal values may be shown once. Values belong to the compound of their own block, whether it stands above or below them.

Experiments:
Assay in all cases: ≥ marks a high value that may be exact or a test limit, other limits are often not marked, values filed in µg/mL are converted to µM
[1] = system: Bacillus subtilis KCTC 1918
[2] = system: Staphylococcus aureus ATCC 25923
[3] = system: Salmonella typhimurium KCTC 1926
[4] = system: Aspergillus fumigatus KCTC 6145
[5] = system: Aspergillus parasiticus KCTC 6598
[6] = system: Trichosporon beigelii KCTC 7707
[7] = system: Bacillus subtilis KCTC 1998
[8] = system: Staphylococcus epidermidis KCTC 3096
[9] = system: Escherichia coli ATCC 25922
[10] = system: Staphylococcus epidermidis ATCC 12228
[11] = system: Proteus vulgaris KCTC 2433
[12] = system: Listeria monocytogenes ATCC 19115
[13] = system: Pseudomonas aeruginosa ATCC 15692
[14] = system: Candida albicans KCTC 7270
[15] = system: Aspergillus flavus KCTC 6905
[16] = system: Pseudomonas aeruginosa KCTC 1637
[17] = system: Aspergillus awamori KCTC 6915
[18] = system: Listeria monocytogenes KCTC 3710
[19] = system: Staphylococcus aureus USA 300
[20] = system: Staphylococcus epidermidis ATCC 35984
[21] = system: Enterobacter cloacae 2524
Acinetobacter baumannii = system: Acinetobacter baumannii
Escherichia coli 170 = system: Escherichia coli 170
[22] = system: Pseudomonas aeruginosa 4677
[23] = system: Klebsiella pneumoniae 913
Escherichia coli UB1005 = system: Escherichia coli UB1005
[24] = system: Pseudomonas aeruginosa H744
Escherichia coli KF130 = system: Escherichia coli KF130
[25] = system: Pseudomonas aeruginosa K799
[26] = system: Pseudomonas aeruginosa ATCC 27853
[27] = system: Staphylococcus epidermidis
[28] = system: Salmonella enterica subsp. enterica serovar Typhimurium ATCC 14028s
[29] = system: Pseudomonas aeruginosa H374
Escherichia coli KF111 = system: Escherichia coli KF111
[30] = system: Staphylococcus aureus ATCC 33591
[31] = system: Shigella dysenteriae ATCC 9752
[32] = system: Staphylococcus aureus ATCC 6538P
[33] = system: Candida albicans ATCC 64550
[34] = system: Klebsiella pneumoniae ATCC 10031
[35] = system: Micrococcus luteus ATCC 10240
[36] = system: Staphylococcus aureus TK784
[37] = system: Bacillus subtilis ATCC 6633
[38] = system: Salmonella enterica subsp. enterica serovar Typhimurium ATCC 14028

Compound: CC[C@H](C)[C@H](NC(=O)[C@H](CCCCN)NC(=O)[C@H](CCCCN)NC(=O)[C@H](C)NC(=O)[C@H](CC(C)C)NC(=O)[C@H](CCCCN)NC(=O)[C@H](CCCCN)NC(=O)[C@H](CC(C)C)NC(=O)[C@H](CCCN=C(N)N)NC(=O)[C@H](CCCCN)NC(=O)[C@H](C)N)C(=O)N[C@@H](Cc1c[nH]c2ccccc12)C(=O)N[C@@H](CC(N)=O)C(=O)N[C@@H](Cc1c[nH]c2ccccc12)C(=O)N[C@@H](CCCCN)C(N)=O [AKRLKKLAKKIWNWK]
MIC [1]: 4 µM (≈ 7.64 µg/mL)
MIC [2]: 5.66 µM and 16 µM
MIC [3]: 2 µM (≈ 3.82 µg/mL)
MIC [4]: 4 µM (≈ 7.64 µg/mL)
MIC [5]: 8 µM (≈ 15.3 µg/mL)
MIC [6]: ≥ 32 µM
MIC [7]: 4 µM (≈ 7.64 µg/mL)
MIC [8]: 16 µM (≈ 30.6 µg/mL)
MIC [9]: 22.6 µM (≈ 43.2 µg/mL)
MIC [10]: 16 µM (≈ 30.6 µg/mL)
MIC [11]: 4 µM (≈ 7.64 µg/mL)
MIC [12]: 2 µM (≈ 3.82 µg/mL)
MIC [13]: 2 µM (≈ 3.82 µg/mL)
MIC [14]: 16 µM (≈ 30.6 µg/mL)
MIC [15]: ≥ 32 µM
MIC [16]: 2 µM (≈ 3.82 µg/mL)
MIC [17]: 16 µM (≈ 30.6 µg/mL)
MIC [18]: 2 µM (≈ 3.82 µg/mL)

Compound: CC[C@H](C)[C@H](NC(=O)CN)C(=O)N[C@H](C(=O)N[C@@H](CCCCN)C(=O)N[C@H](C(=O)N[C@H](C(=O)N[C@@H](CCCCN)C(=O)N[C@@H](CO)C(=O)N[C@@H](CC(C)C)C(=O)N[C@H](C(=O)N[C@@H](CCC(=O)O)C(=O)N[C@@H](CCC(N)=O)C(=O)N[C@@H](Cc1ccccc1)C(=O)N[C@H](C(=O)NCC(=O)N[C@@H](CCCCN)C(=O)O)[C@@H](C)O)[C@@H](C)CC)[C@@H](C)CC)C(C)C)[C@@H](C)CC [GIIKVIKSLIEQFTGK]
MIC [19]: ≥ 64 µM
MIC [20]: ≥ 42 µM

Compound: CC[C@H](C)[C@H](N)C(=O)N[C@@H](C)C(=O)N[C@@H](CO)C(=O)N[C@@H](CCCCN)C(=O)N[C@H](C(=O)N[C@@H](C)C(=O)N[C@@H](CC(N)=O)C(=O)N[C@H](C(=O)N[C@H](C(=O)N[C@@H](CCC(N)=O)C(=O)N[C@@H](CCCCN)C(=O)N[C@@H](CC(C)C)C(=O)N[C@@H](CCCCN)C(=O)N[C@@H](CCCN=C(N)N)C(=O)N[C@@H](CCCCN)C(=O)N[C@@H](C)C(=O)N[C@@H](CCCCN)C(=O)N[C@@H](CC(N)=O)C(=O)N[C@@H](C)C(=O)N[C@H](C(=O)O)C(C)C)C(C)C)[C@@H](C)O)C(C)C [IASKVANTVQKLKRKAKNAV]
MIC [21]: ≥ 50 µM
MIC (Acinetobacter baumannii): ≥ 50 µM
MIC [9]: 25 µM (≈ 54.2 µg/mL)
MIC (Escherichia coli 170): ≥ 50 µM
MIC [22]: ≥ 50 µM
MIC [23]: ≥ 50 µM

Compound: CC[C@H](C)[C@H](NC(=O)[C@@H]1CCCN1C(=O)[C@H](CCCCN)NC(=O)[C@H](CC(C)C)NC(=O)[C@H](C)NC(=O)[C@@H](NC(=O)[C@H](Cc1cnc[nH]1)NC(=O)[C@H](CC(C)C)NC(=O)[C@@H](NC(=O)[C@@H](NC(=O)[C@H](CCCN=C(N)N)NC(=O)[C@H](C)NC(=O)[C@@H]1CCCN1C(=O)[C@H](CO)NC(=O)[C@H](CCCCN)NC(=O)[C@H](Cc1ccccc1)NC(=O)[C@@H](NC(=O)[C@H](CCCCN)NC(=O)[C@H](CC(C)C)NC(=O)[C@H](Cc1ccccc1)NC(=O)[C@H](CO)NC(=O)[C@H](CCCCN)NC(=O)[C@H](Cc1c[nH]c2ccccc12)NC(=O)[C@@H](N)CCCCN)[C@@H](C)O)[C@@H](C)O)C(C)C)[C@@H](C)O)C(=O)N[C@@H](CO)C(=O)N[C@@H](CO)C(=O)O [KWKSFLKTFKSPARTVLHTALKPISS]
MIC (Escherichia coli UB1005): 1.35 µM (≈ 4 µg/mL)
MIC [24]: 10.8 µM (≈ 32 µg/mL)
MIC (Escherichia coli KF130): 2.69 µM (≈ 8 µg/mL)
MIC [25]: 10.8 µM (≈ 32 µg/mL)
MIC [26]: 4 µM (≈ 11.9 µg/mL)
MIC [27]: 21.5 µM (≈ 64 µg/mL)
MIC [28]: 10.8 µM (≈ 32 µg/mL)
MIC [29]: 10.8 µM (≈ 32 µg/mL)
MIC (Escherichia coli KF111): 1.35 µM (≈ 4 µg/mL)

Results, then the compound that gave them:

MIC (Escherichia coli UB1005): 0.667 µM (≈ 2 µg/mL)
MIC [24]: 5.34 µM (≈ 16 µg/mL)
MIC (Escherichia coli KF130): 0.667 µM (≈ 2 µg/mL)
MIC [25]: 5.34 µM (≈ 16 µg/mL)
MIC [27]: 10.7 µM (≈ 32 µg/mL)
MIC [28]: 5.34 µM (≈ 16 µg/mL)
MIC [29]: 5.34 µM (≈ 16 µg/mL)
MIC (Escherichia coli KF111): 0.667 µM (≈ 2 µg/mL)
Compound: CC[C@H](C)[C@H](NC(=O)[C@@H]1CCCN1C(=O)[C@H](CCCCN)NC(=O)[C@H](CC(C)C)NC(=O)[C@H](C)NC(=O)[C@@H](NC(=O)[C@H](Cc1ccc(O)cc1)NC(=O)[C@H](Cc1ccccc1)NC(=O)[C@@H](NC(=O)[C@@H](NC(=O)[C@H](CCCCN)NC(=O)[C@@H](NC(=O)[C@@H]1CCCN1C(=O)[C@H](CO)NC(=O)[C@H](CCCCN)NC(=O)[C@H](CC(C)C)NC(=O)[C@@H](NC(=O)[C@H](CCCCN)NC(=O)[C@H](CC(C)C)NC(=O)[C@H](Cc1ccccc1)NC(=O)[C@H](CO)NC(=O)[C@H](CCCCN)NC(=O)[C@H](Cc1c[nH]c2ccccc12)NC(=O)[C@@H](N)CCCCN)[C@@H](C)O)C(C)C)[C@@H](C)O)C(C)C)[C@@H](C)O)C(=O)N[C@@H](CO)C(=O)N[C@@H](CO)C(=O)O [KWKSFLKTLKSPVKTVFYTALKPISS]

MIC [2]: > 259 µM
MIC [20]: 8.1 µM (≈ 16 µg/mL)
MIC [26]: 1.43 µM (≈ 2.83 µg/mL)
MIC [30]: ≥ 259 µM
Compound: CC[C@H](C)[C@H](NC(=O)[C@H](CCCCN)NC(=O)[C@@H](NC(=O)[C@H](Cc1ccccc1)NC(=O)[C@H](C)NC(=O)[C@H](CCCCN)NC(=O)CNC(=O)[C@H](Cc1ccccc1)NC(=O)[C@H](CCCCN)NC(=O)[C@H](CCCCN)NC(=O)[C@H](C)NC(=O)[C@H](CCCCN)NC(=O)[C@H](CCCCN)NC(=O)[C@@H](N)CC(C)C)C(C)C)C(=O)N[C@@H](CC(C)C)C(=O)N[C@@H](CCCCN)C(=O)N[C@@H](CCCCN)C(N)=O [LKKAKKFGKAFVKILKK]

MIC [31]: 6.81 µM (≈ 9.99 µg/mL)
MIC [9]: 6.81 µM (≈ 9.99 µg/mL)
MIC [10]: 0.885 µM (≈ 1.3 µg/mL)
MIC [32]: 0.885 µM (≈ 1.3 µg/mL)
MIC [33]: ≥ 100 µM
MIC [26]: 6.81 µM (≈ 9.99 µg/mL)
MIC [34]: 13.6 µM (≈ 20 µg/mL)
MIC [35]: 0.885 µM (≈ 1.3 µg/mL)
MIC [36]: 3.4 µM (≈ 5 µg/mL)
MIC [37]: 0.885 µM (≈ 1.3 µg/mL)
MIC [38]: 27.2 µM (≈ 40 µg/mL)
Compound: CC(C)C[C@H](NC(=O)[C@H](Cc1c[nH]c2ccccc12)NC(=O)[C@H](CCCCN)NC(=O)[C@H](CC(C)C)NC(=O)[C@H](CC(C)C)NC(=O)[C@H](Cc1c[nH]c2ccccc12)NC(=O)[C@H](CCCCN)NC(=O)[C@H](CC(C)C)NC(=O)[C@@H](N)CC(C)C)C(=O)N[C@@H](CCCCN)C(=O)N[C@@H](CCCCN)C(N)=O [LLKWLLKWLKK]
